Data taken from patent US20250353835A1, “N-TETRAZOLYL ARYL UREA-BASED DERIVATIVES, PREPARATION METHOD THEREFOR, AND USE THEREOF” (Hangzhou Yirui Pharmaceutical Technology Co., Ltd, priority 2022, published 2025).

How the values were obtained:
[1] = test system: rat model of diabetic retinopathy; test: Rat model of diabetic retinopathy (STZ); type: in vivo, Wistar rats; conditions: for retinal leukocyte stasis, Leukocyte count: Concanavalin A/FITC, 14 days after intravitreal injection, compounds 0.25%, dexamethasone 0.1%; for number of leukocyte stasis in the retina (fluorescent staining, FIG. 8; in words) / retinal vascular penetration in rats (fluorescent staining, FIG. 6; in words): intraocular injection, versus model group
Description: 3.1 Laboratory animals: SPF-grade male Wistar rats, weighed 180-220 g.
3.3 Animal modeling and grouping: After one week of adaptive feeding, 134 male Wistar rats (weighed 220-260 g) were administered 65 mg/kg of STZ by one-time intraperitoneal injection to prepare a rat model of type I diabetic. The rats were fasting but water was allowable overnight for 15 h. The formulated STZ solution was intraperitoneally injected according to body weight. After 1 h, the diet was resumed and blood glucose was measured at 72 h. The successfully modeled diabetic rats (120 rats) were selected for continued feeding, and randomly divided into the following 6 groups according to blood glucose (20 rats per group), plus a group of normal rats with no STZ injected as a negative control group.
3.4 Administration: The rats continued to be fed until blood glucose was measured once before administration. After blood glucose reached the standard, drugs were intravitreally injected, and indexs were subsequently tested after 14 days. Blood glucose was measured once before sampling.
3.5 Evans blue staining method (7 groups, 6 rats per group): Evans blue was intravenously injected. 2 hours later, normal saline was perfused into the left ventricle. The retina was taken to compare between the stained area and the unstained area to detect retinal vascular permeability.
3.6 Retinal leukocyte stasis detection method (7 groups, 6 rats per group): PBS was perfused into the left ventricle for 1 min to remove red blood cells and other substances. Concanavalin A (FITC (Sigma, C7642) was perfused (20 μg/ml in PBS, 5 mg/kg) to mark adherent leukocytes. 4% PFA was perfused for 4 min for fixation. 1% Albumin (Sigma, A6414) (in PBS) was perfused for 1 min, and then PBS was perfused for 2 min. The retina was taken for retinal wholemount. Thereafter, the stasis of leukocytes on the vascular endothelium was observed under a fluorescence microscope. […]

human B1R = molecular target: T1, human B1R (Homo sapiens, UniProt P46663); test: FLIPR calcium ion flux assay, inhibitory activity against human B1R; type: cell-based; conditions: HEK293 cells stably expressing human B1R; agonist [Lys-des-Arg9]-Bradykinin 4.6 nM (EC80); FLIPR method
T1 construct: host or cells: HEK293
T1 sequence (P46663 1-353): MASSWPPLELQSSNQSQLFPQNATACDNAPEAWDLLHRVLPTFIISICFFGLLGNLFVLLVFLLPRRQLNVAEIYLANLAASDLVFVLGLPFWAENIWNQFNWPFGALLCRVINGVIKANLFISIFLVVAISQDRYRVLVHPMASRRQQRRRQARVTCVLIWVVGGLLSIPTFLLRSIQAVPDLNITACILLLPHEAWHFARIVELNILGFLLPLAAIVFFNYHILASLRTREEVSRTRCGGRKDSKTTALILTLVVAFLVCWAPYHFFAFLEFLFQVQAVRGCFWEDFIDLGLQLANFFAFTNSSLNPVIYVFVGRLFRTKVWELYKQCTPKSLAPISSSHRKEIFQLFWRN
Description: The inhibitory activity of the compounds against human B1R and B2R channels was determined by calcium ion flux assay using fluorometric imaging plate reader (FLIPR method). See literatures of Lee, Chen et al. for the method. [Lee et al. 2008][Chen et al. 2011]
1. Cell culture: HEK293 recombinant cell lines (WuXi AppTec, Shanghai, China) stably expressing human B1R and B2R were cultured in DMEM (Invitrogen, Cat #11965) medium containing 10% calf serum (Excellbio, Cat #FSP500), 5 μg/ml Geneticin (Invitrogen, Cat #10131) and Penicillin/Streptomycin (Invitrogen, Cat #15140). The incubator conditions were 37° C. and ambient humidity containing 5% CO2.
2. Preparation of the cell assay plate: B1R and B2R cells were seeded in a 384-well assay plate (Greiner, Cat #781090) at a density of 20,000 cells per well (20 μl/well), and cultured overnight at 37° C. in an incubator with 5% CO2. The next day, Fluo-4 Direct™ Loading Buffer (containing 5 mM Probenicid) containing 2× (8 μM) Fluo-4 Direct (Invitrogen, Cat #F10471) was added to each of the wells. The cells were cultured at 37° C. for 50 min, and then culture for at the room temperature 10 min.
3. Preparation of the compound assay plate: The compound was dissolved in 100% DMSO to make a 30 mM stock solution and stored at −20° C. On the day of use, the stock solution of the compound was thawed at the room temperature. Each of the compounds was serially diluted at 1:5 in DMSO culture medium with a starting concentration of 30 μM for 9 concentration points on a 384-well plate. Each of compounds was diluted in duplicate for testing. [Des-Arg10]-HOE140 was used as a positive control compound, and diluted in the same manner with a starting concentration of 3 μM.
4. FLIPR assay: The cell assay plate was placed in a FLIPR instrument ([…]). The compounds in the compound assay plate were added to the corresponding wells on the cell assay plate (10 μL/well) using an automatic program. The calcium ion fluorescence signal was recorded to determine whether the compound may have agonist activity. After 10 minutes, a B1R agonist [Lys-des-Arg9]-Bradykinin2 (10 μL/well) with a final concentration of 4.6 nM (EC80) was added to each of the wells to stimulate the generation of intracellular calcium ion flux signals. The Ca^++-dependent fluorescence signal was continuously monitored at a wavelength of 538 nm to analyze the inhibitory activity of the compound.
5. Data analysis: The data was collected and analyzed by a FLIPR program. The inhibitory (or agonist) activity of the compound at each concentration was evaluated by the fluorescence peak. The IC50 values of the compounds were calculated using EXCEL and PRISM programs.

SMILES | IC50 (human B1R) | also measured
COc1ccc(-c2c(F)cc(NC(=O)N3CCC(C(C)(C)C)CC3)cc2-c2nn[nH]n2)cc1OC [Compound 11, 4-(tert-butyl)-N-(2-fluoro-3′,4′-dimethoxy-6-(2H-tetrazol-5-yl)-[1,1′-biphenyl]-4-yl)piperidine-1-carboxamide] | 14.6 nM | retinal leukocyte stasis, Leukocyte count [1]: 7.20 ± 8.44; number of leukocyte stasis in the retina (fluorescent staining, FIG. 8; in words) [1]: significantly reduced; retinal vascular penetration in rats (fluorescent staining, FIG. 6; in words) [1]: significantly reduced
CC(C)(C)C1CCN(C(=O)Nc2cc(F)c(C(=O)OC3CCCCC3)c(-c3nn[nH]n3)c2)CC1 [Compound 17, cyclohexyl 4-(4-(tert-butyl)piperidine-1-formamido)-2-fluoro-6-(2H-tetrazol-5-yl)benzoate] | 29.6 nM | –
Cn1ncc2cc(-c3ncc(NC(=O)N4CCC(C(C)(C)C)CC4)cc3-c3nn[nH]n3)ccc21 [Compound 36, 4-(tert-butyl)-N-(6-(1-methyl-1H-indazol-5-yl)-5-(2H-tetrazol-5-yl)pyrid-3-yl)piperidine-1-carboxamide] | 48.3 nM | –
Cn1ncc2cc(-c3ccc(NC(=O)N4CCC(C(C)(C)C)CC4)cc3-c3nn[nH]n3)ccc21 [Compound 10, 4-(tert-butyl)-N-(4-(1-methyl-1H-indazol-5-yl)-3-(2H-tetrazol-5-yl)phenyl)piperidine-1-carboxamide] | 18.3 nM | –
Cc1ccc(NC(=O)c2ccc(NC(=O)N3CCC(C(C)(C)C)CC3)cc2-c2nn[nH]n2)nc1 [Compound 47, 4-(tert-butyl)-N-(4-((5-methylpyridin-2-yl)aminoformyl)-3-(2H-tetrazol-5-yl)phenyl)piperidine-1-carboxamide] | 93.9 nM | –
COc1ccc(-c2c(F)cc(NC(=O)N3CCC(C(F)(F)F)CC3)cc2-c2nn[nH]n2)cc1OC [Compound 26, N-(2-fluoro-3′,4′-dimethoxy-6-(2H-tetrazol-5-yl)-[1,1′-biphenyl]-4-yl)-4-(trifluoromethyl)piperidine-1-carboxamide] | 54.4 nM | –
CCOC(=O)c1ccc(NC(=O)N2CCC(C(C)(C)C)CC2)cc1-c1nn[nH]n1 [Compound 16, ethyl 4-(4-(tert-butyl)piperidine-1-formamido)-2-(2H-tetrazol-5-yl)benzoate] | 28.2 nM | –

Further lines, with some results ahead:

IC50 (human B1R) | SMILES | also measured
43.5 nM | COc1ccc(-c2ccc(NC(=O)N(C)[C@H]3CC[C@H](C(C)(C)C)CC3)cc2-c2nn[nH]n2)cc1OC [Compound 65, 1-((trans)-4-(tert-butyl)cyclohexyl)-3-(3′,4′-dimethoxy-2-(2H-tetrazol-5-yl)-[1,1′-biphenyl]-4-yl)-1-methylurea] | retinal leukocyte stasis, Leukocyte count [1]: 5.14 ± 1.20; number of leukocyte stasis in the retina (fluorescent staining, FIG. 8; in words) [1]: significantly reduced; retinal vascular penetration in rats (fluorescent staining, FIG. 6; in words) [1]: significantly reduced
1650 nM | C[C@H]1CC[C@H](NC(=O)Nc2ccc(C3=CCOCC3)c(-c3nn[nH]n3)c2)CC1 [Compound 66, 1-(4-(3,6-dihydro-2H-pyran-4-yl)-3-(2H-tetrazol-5-yl)phenyl)-3-((trans)-4-methylcyclohexyl)urea] | –
7490 nM | C[C@H]1CC[C@H](NC(=O)Nc2ccc(C3CCOCC3)c(-c3nn[nH]n3)c2)CC1 [Compound 68, 1-((trans)-4-methylcyclohexyl)-3-(4-(tetrahydro-2H-pyran-4-yl)-3-(2H-tetrazol-5-yl)phenyl)urea] | –
13700 nM | C[C@H]1CC[C@H](NC(=O)Nc2ccc(OC3CCOCC3)c(-c3nn[nH]n3)c2)CC1 [Compound 73] | –
26.2 nM | COc1ccc(-c2ccc(NC(=O)N3CCC(C(C)(C)C)CC3)cc2-c2nn[nH]n2)cc1C [Compound 13, 4-(tert-butyl)-N-(4′-methoxy-3′-methyl-2-(2H-tetrazol-5-yl)-[1,1′-biphenyl]-4-yl)piperidine-1-carboxamide] | –
162 nM | CCOc1ccc(-c2ccc(NC(=O)N3CCC(C)CC3)cc2-c2nn[nH]n2)cn1 [Compound 5, N-(4-(6-ethoxypyrid-3-yl)-3-(2H-tetrazol-5-yl)phenyl)-4-methylpiperidine-1-carboxamide] | –
303 nM | CC(C)(C)[C@H]1CC[C@@H](NC(=O)Nc2ccc(-c3ccc4c(c3)OCO4)c(-c3nn[nH]n3)c2)CC1 [Compound 70, 1-(4-(benzo[d][1,3]dioxolan-5-yl)-3-(2H-tetrazol-5-yl)phenyl)-3-((cis)-4-(tert-butyl)cyclohexyl)urea] | –
95.2 nM | CC(C)(C)C1CCN(C(=O)Nc2ccc(C(=O)OC3CCCC3)c(-c3nn[nH]n3)c2)CC1 [Compound 43, cyclopentyl 4-(4-(tert-butyl)piperidine-1-formamido)-2-(2H-tetrazol-5-yl)benzoate] | –
60.2 nM | COc1ccc(-c2ccc(NC(=O)N[C@H]3CC[C@H](C)CC3)cc2-c2nn[nH]n2)cc1OC [Compound 62, 1-(3′,4′-dimethoxy-2-(2H-tetrazol-5-yl)-[1,1′-biphenyl]-4-yl)-3-((trans)-4-methylcyclohexyl)urea] | –
